Data set [1] can be described thus: One-photon absorption and emission spectra in multilamellar lipid vesicles, water and ethanol. The format is physicochemical. The following applies: for 1PF Abs. Max / 1PF Em. Max: one photon, soybean multi-lamellar lipid vesicles. The text has this: […] The column indicating relative signal change for one-photon fluorescence also lists the excitation light source used and the lower bounds of the long-pass emission detected.
Absorption and emission spectra were obtained for a series of dyes with different acceptors: pyridinium (PY-1261), quinolinium (PY-212), and acridinium (PY-2240).

Another data set deals with dye-stained cells. The data set is described as follows: Confocal fluorescence intensity and bleaching of dye-stained cells. The format is cell-based. The following applies: compared with PY-1261.
Data set [2] is described as follows: One-photon fluorescence relative signal change per 100 mV. The settings on record: excitation / long-pass emission (nm) given. The text has this:
The left-most data columns of Table 1 are the absorption and emission maxima for one photon fluorescence in soybean multi-lamellar lipid vesicles used to mimic the membrane environment. The column indicating relative signal change for one-photon fluorescence also lists the excitation light source used and the lower bounds of the long-pass emission detected.

The next data set concerns membrane potential. The settings on record: cited from earlier work.
A further data set has as its system neuroblastoma cells. Put plainly: SHG and 2PF imaging of stained neuroblastoma cells, 1064 nm fiber laser. The format is cell-based, mouse. The settings on record: 1064 nm excitation. The text has this: For full details of our non-linear imaging microscope, we refer the reader to previously published descriptions. A. C. Millard, P. J. Campagnola, W. Mohler, A. Lewis, and L. M. Loew, “Second Harmonic Imaging Microscopy,” Meth. Enzymol. 361, 47-69 (2003); Millard, A. C., L. Jin, and L. M. Loew, “Second Harmonic Generation Imaging Microscopy with a High Power Ultrafast Fiber Laser,”Commercial and Biomedical Applications of Ultrafast Lasers. 5714-5716, 92-98 (2005); A. C. Millard, L. Jin, M.-D. Wei, J. P. Wuskell, A. Lewis, and L. M. Loew, “Sensitivity of Second Harmonic Generation from Styryl Dyes to Transmembrane Potential,” Biophys. J. 86, 1169-1176 (2004). Our current microscope combines a Fluoview (Olympus) scan-head and an Axiovert (Zeiss) inverted microscope constructed for multiple imaging methodologies including wide-field, one-photon excitation fluorescence imaging, as well as SHG and 2PF imaging. Our laser sources include a Mira (Coherent) Ti:sapphire laser and a Femtopower (Fianium) fiber laser operating at 1064 nm. […] Fluorescence is imaged (for linear imaging) or collected (for non-linear imaging) back through the excitation objective, while SHG is collected in the forward, transmitted light direction by a condenser, either 0.8 NA or 0.55 NA (Zeiss). […]

Where [3] appears, read: compared with unfluorinated PY-1261.

SMILES strings stand for the structures. “And” between values parts separate entries of the source, which are not always exact repeats. Identical values can stand only once.

Consider `CCN(CC)c1ccc(-c2ccc(/C=C(\F)c3cc[n+](CCC[N+](CC)(CC)CC)cc3)s2)s1` [PY-3008], for which, in data set [1] (setting [3]), the “absorbance extinction coefficient of dye-stained lipid vesicle suspensions” value is reported as “increases” and the “effect of fluorination on spectra” value is given as “shifts the spectra to the red”. Moreover, in data set [1], the “1PF Abs. Max” value came to 565 nm and the “1PF Em. Max” value amounted to 706 nm. In the data set with dye-stained cells, the “half time for bleaching of dye-stained cells” value is “increases the half time for bleaching”. In addition, the “intensity of fluorescence of stained cells” value with dye-stained cells (confocal microscope) is “increases”. In addition, the “1PF Change (ΔF/F-100 mv)” value in data set [2] is reported as 1.0E−001; 650/>715 ΔF/F-100 mv.

On to `CCCCN(CCCC)c1ccc2cc(/C=C/c3cc[n+](CCCS(=O)(=O)[O-])cc3)ccc2c1` [di-4-ANEPPS], for which the “SHG Kinetics (exponential time constant)” value in the data set with membrane potential (literature (Millard 2005)) is on record as 70.6 ms.

On to `CCCCN(CCCC)c1ccc(/C=C/c2cc[n+](CCC[N+](CC)(CC)CC)cc2)s1` [PY-1284], for which, in the data set with neuroblastoma cells, the “2PF and SHG image signal strength” value is on record as “weak”. For the same compound, in data set [1], the “1PF Abs. Max” value is recorded as 536 nm and the “1PF Em. Max” value was determined as 588 nm. Also, in data set [2], the “1PF Change (ΔF/F-100 mv)” value was 1.5E−002; 555/>610 ΔF/F-100 mv.

As for `CCN(CC)c1ccc(/C=C/C=C/C=C/c2cc[n+](CCC[N+](CC)(CC)CC)cc2)cc1.[Br-].[Br-]` [FM4-64], the “SHG sensitivity to membrane potential” value with membrane potential (literature) was < 10 % per 100 mV and 7.5-10 % per 100 mV.

These data come from US8129532B2, “Amino(oligo)thiophene dyes, preparation thereof, and optical methods of use” (The University of Connecticut, priority 2007, dated 2012).
